# According to patent US20100035822A1, “PROLINE-RICH PEPTIDES, PHARMACEUTICAL COMPOSITION, USE OF ONE OR MORE PEPTIDES AND METHOD OF TREATMENT” (priority 2006, published 2010):
# Square brackets hold non-standard residues; d marks the D form. Ends that are not written are not given here. pGlu = O=C1CC[C@@H](C(=O)O)N1
# T1: argininosuccinate synthase (AsS) (Mus musculus, UniProt P16460)
# T1 construct: Cytosolic and membrane fractions of the renal extract (100 mg/ml total protein) were applied to separate columns; from tissue; host or cells: Balb-c mouse kidney, cytosolic and membrane fractions
# T1 sequence (P16460 1-412): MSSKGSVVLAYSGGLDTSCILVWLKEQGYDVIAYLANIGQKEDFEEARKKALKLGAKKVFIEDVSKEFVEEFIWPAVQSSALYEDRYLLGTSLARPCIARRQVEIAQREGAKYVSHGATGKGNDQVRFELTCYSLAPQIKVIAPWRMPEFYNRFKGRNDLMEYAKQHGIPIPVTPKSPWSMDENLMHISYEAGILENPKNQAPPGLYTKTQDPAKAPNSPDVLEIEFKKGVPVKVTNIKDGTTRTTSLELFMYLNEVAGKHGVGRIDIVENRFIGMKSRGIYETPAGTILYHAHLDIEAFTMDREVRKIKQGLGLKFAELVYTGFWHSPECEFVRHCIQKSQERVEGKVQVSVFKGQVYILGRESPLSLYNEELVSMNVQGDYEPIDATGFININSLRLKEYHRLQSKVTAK
# T2: argininosuccinate synthase (AsS) (mouse, UniProt P16460 1-412)
# T2 sequence: T1 sequence (P16460 1-412)
# Legend:
# [1] = target: T1, argininosuccinate synthase (AsS); assay: Affinity chromatography of mouse kidney extract on peptide column; identification of the bound protein; assay type: binding; details: affinity column with SEQ ID NO 7 as ligand; crude mouse kidney extract
# Experimental: Starting material were the cytosolic and plasma membrane crude extracts of mouse kidney cells homogenized in the buffer 10 mM Tris-HCl pH 7.5, 25 mM saccharose, 1 mM EDTA, and 1 mM PMSF (cytosolic fraction), or 1% Triton X-100 (plasma membrane fraction). Supernatants were dialyzed in 0.2 M NaHCO3, 0.5 M NaCl, pH 8.3, and separately applied to the affinity chromatography column Hitrap NHS-activated (GE Healthcare) coupled to 5 mg of peptide SEQ ID NO 7.
# Preparing affinity columns. Columns were washed three times with 2 ml 1 mM HCl before homogeneous preparations of SEQ ID NO 7 (5 mg in 1 ml 0.2 M NaHCO3, 0.5 M NaCl, pH 8.3) were applied. After 30 min incubation at room temperature, peptides had been coupled, and the column was inactivated with buffer A (0.5 M ethanolamine, 0.5 M NaCl, pH 8.3), and washed with 0.2 M NaHCO3, 0.5 M NaCl, pH 8.3, and stored at 4° C. in 50 mM Na2HPO4, 0.1%, NaN3, pH 7.0. The columns were called HiTrap-SEQ. ID NO 7. […]
# Affinity chromatography and analysis of the retained proteins by SDS-PAGE. […] Protein concentration (mg/ml) was determined by the method of Bradford (Bradford, M. M. A rapid and sensitive method for the quantitation of microgram quantities of protein utilizing the principle of protein-dye binding. Anal. Biochem. 72: 248-254, 1976) with the Protein Assay reagent from BioRad. […]
# [2] = tested on: SK-N-AS cells (human neuroblastoma); assay: Free intracellular Ca2+ concentration in SK-N-AS cells (fluo-3 AM, confocal microscopy); assay type: cell-based
# Experimental: In these experiments the variation in free intracellular calcium [Ca^2+]i concentration was measured in SK-N-AS cells (human neuroblastoma, ATCC No. CRL-2137) after addition of 1 μmolar of peptides SEQ ID NO 1 or SEQ ID NO 8, or of 1 μmolar captopril. Cells were kept in DMEM (Dulbecco Modified Medium), supplemented with 10% fetal bovine serum (FBS) and 1% non-essential amino acids, at 5% CO2 atmosphere, at 37° C., and 95% relative humidity. Cells were treated with trypsin, and replicated at adequate cell concentrations.
# Measurements of variation in the concentration of free [Ca^2+]i were performed with a confocal microscope LSM 510 (Zeiss, Jena, Germany), as described by Martins et al., (Martins et al., Neuronal differentiation of P19 embryonal carcinoma cells modulates kinin B2 receptor gene expression and function. J. Biol. Chem. 280: 19576-19586, 2005). Approximately 5×10^4 SK-N-AS cells were plated on 60 mm plates 24 hours prior to measurement, and then treated with 4 μM fluo-3 AM (Invitrogen Corporation) in 0.5% DMSO and 0.1% non-ionic surfactant pluronic acid F-127 for 30 minutes at 37° C. Cells were washed with DMEM containing 10% FBS, and transferred to defined medium (5 μg/ml insulin, 30 μg/ml transferrin, 20 μM ethanolamine, 30 nM sodium selenite, 1 μM sodium pyruvate, 1% non-essential amino acids, 1 mM glutamine, 100 μg/ml penicillin, 100 μg/ml streptomycin, 10 mM HEPES pH 7.4 in DMEM). The fluorescent fluo-3 AM was excited at 488 nm, and the fluorescence measured at 526 nm.
# Variations in the [Ca^2+]i were measured in non-stimulated cells, and in cells stimulated with peptides SEQ ID NO 1 or SEQ ID NO 8, or with captopril (Sigma Aldrich). Increase of fluorescence was monitored for 2 minutes, and images were acquired in 256×256 pixels every second. At the end of each experiment, 5 μM ionophore (4-Br-A23187) were added, followed by 10 mM EGTA, or 20 μM digitonin to determine maximum and minimum fluorescence, Fmax and Fmin respectively, as described by Grynkiewicz et al., (1985).
# Intracellular calcium concentrations [Ca^2+]i, related to fluorescence (F) values obtained after addition of peptides SEQ ID NO 1 or SEQ ID NO 8, were calculated with the equation: [Ca^2+]=Kd(F−Fmin)/(Fmax−F), assuming Kd=450 nM for fluo-3 AM (Hallett et al., 1990).
# [3] = tested on: renal nitric oxide synthase (NOS); assay: Activation of kidney NOS in mice (3H-arginine to 3H-citrulline conversion); assay type: in vivo, mouse; details: HOE 140 10 μg/Kg for 1 hour
# Experimental: Male Swiss albinos weighing 22-25 g were injected intraperitoneally with: (1) 50 μl 0.9% NaCl (basal level control), or with 0.9% NaCl supplemented with LPS (2 mg/Kg) (positive control); (2) SEQ ID NO 8 (0.21, 0.91, and 3.47 mg/Kg); (3) SEQ ID NO 8 (0.91 mg/Kg) injected into animals pre-treated via intraperitoneally with L-NAME (3 mg/Kg for 1 h); (4) SEQ ID NO 8 (0.91 mg/Kg) injected into animals pre-treated via intraperitoneally with HOE140 (10 μg/Kg for 1 h); (5) captopril (0.21, 0.91, and 3.47 mg/Kg). After 5, 15, 30, 60, 120, and 180 min, animals were killed, their kidneys removed and stored at −70° C. Animals of group 3 and 4 were killed 30 minutes after administration of the oligopeptide.
# NOS activity was measured according to Bredt and Snyder [Bredt D S and Snyder S H. Isolation of nitric oxide synthetase, a calmodulin-requiring enzyme. Proc. Natl. Acad. Sci. USA, 87, 682-685, 1990], and is based on estimating the enzymatic activity of the conversion of L-arginine into L-citrulline using ^3H-arginine as a reference for the conversion.
# The kidneys were minced in homogenizing buffer, pH 7.4 (20 mM HEPES, 0.32 M saccharose, 1 mM DTT, 0.1 mM EDTA, 1 mM PMSF), and sonicated. Protein dosage was performed according to Bradford (1976), followed by a chromatography step in a 300 μL Dowex 50WX8-400 column.
# For the enzymatic assay, 80 μg total protein from each sample were incubated for 60 minutes at 37° C. in 200 μL buffer (30 mM HEPES, 1 mM EDTA, 1.25 mM CaCl2, 1 mM NADPH, 10 μg/mL calmodulin, 4 μM FAD, 4 μM FMN, 25 μM BH4, 120 nM arginine, 0.5 μCi ^3H-arginine). The reaction was stopped by the addition of 1 ml 20 mM HEPES, and incubation in ice bath. ^3H-citrulline was separated from ^3H-arginine by ion-exchange chromatography in a 300 μL Dowex 50WX8-400 column. Radioactivity of the eluates was measured in a beta-counter. After converting cpm (counts per minute) into dpm (disintegration per minute), the specific activity of the nitric oxide synthase (NOS) was calculated using the following equation: […]
# [4] = target: T2, argininosuccinate synthase (AsS); assay: cell-based or functional assay
molecule,measurement,setting,value
ENWPHPQIPP [SEQ ID NO 7],binding to the approx. 46 kDa protein (AsS) of mouse kidney extract,[1],bound
same,time from the peak until the [Ca2+]i plateau,[2],20 s
same,[Ca2+]i response peak,[2]; immediately after addition of the peptide,~250 nM
HOE 140,effect of B2 receptor blockade on the NOS activity increase caused by SEQ ID NO 8,[3],not able to prevent the increase
[pGlu]NWPHPQIPP [oligopeptide SEQ ID NO 8],production rate of phosphate (enzymatic activity of the AsS),[4],~2.5 fold
